What follows are molecules tested on self-replicating, subgenomic HCV replicon in Huh-7 cells (assay: HCV replicon assay). Details: Hepatitis C virus, Huh-7, 72 h.
Type: cell-based

First: C#C[C@]1(F)[C@H](n2cnc3c(OCC)nc(N)nc32)O[C@](F)(COP(=O)(N[C@@H](C)C(=O)OC2CCCCC2)Oc2ccccc2)[C@H]1O (single isomer, unassigned) [Compound 41]
Second: C#C[C@]1(O)[C@H](n2cnc3c(OCC)nc(N)nc32)O[C@](F)(CO[P@@](=O)(N[C@@H](C)C(=O)OC2CCCCC2)Oc2ccccc2)[C@H]1O [Compound 35]
The EC50 of the first is higher: 1 to 10 µM for the first, less than 1 µM for the second.

Compared with `CC(C)OC(=O)[C@H](C)NP(=O)(OC[C@@]1(F)O[C@@H](n2ccc(=O)[nH]c2=O)[C@](C)(F)[C@@H]1O)Oc1ccccc1` (some centres unmarked) [Compound 31], `C=C[C@]1(O)[C@H](n2ccc(=O)[nH]c2=O)O[C@](F)(CO[P@@](=O)(N[C@@H](C)C(=O)OC(C)C)Oc2ccccc2)[C@H]1O` [Compound 77] is higher in EC50: less than 1 µM for the first, 1 to 10 µM for the second.

`CCOc1nc(N)nc2c1ncn2[C@@H]1O[C@](F)(COP(=O)(N[C@@H](C)C(=O)OCC(C)C)Oc2ccccc2)[C@@H](O)[C@@]1(C)F` (some centres unmarked) [Compound 86] and `CCOc1nc(N)nc2c1ncn2[C@@H]1O[C@](F)(COP(=O)(N[C@@H](C)C(=O)OC(C)C)Oc2ccccc2)[C@@H](O)[C@@]1(C)F` (some centres unmarked) [Compound 85] cannot be ordered by EC50: less than 1 µM for the first, less than 1 µM for the second.

First: CC(C)(C)C(=O)SCCOCCOP(=O)(OCCOCCSC(=O)C(C)(C)C)OC[C@@]1(F)O[C@@H](n2ccc(=O)[nH]c2=O)[C@](C)(O)[C@@H]1O [Compound 59]
Second: CC(C)(C)C(=O)SCCOP(=O)(OCCSC(=O)C(C)(C)C)OC[C@@]1(F)O[C@@H](n2ccc(=O)[nH]c2=O)[C@](C)(O)[C@@H]1O [Compound 58]
The EC50 of the first is higher: 10 to 100 µM for the first, less than 1 µM for the second. The second is the more potent here.

`CCOc1nc(N)nc2c1ncn2[C@@H]1O[C@](F)(CO[P@@](=O)(N[C@@H](C)C(=O)OC2CCCCC2)Oc2ccccc2)[C@@H](O)[C@@]1(C)F` [Compound 33] and `CCOc1nc(N)nc2c1ncn2[C@@H]1O[C@](F)(CO[P@](=O)(N[C@@H](C)C(=O)OC2CCCCC2)Oc2ccccc2)[C@@H](O)[C@@]1(C)F` [Compound 32] cannot be ordered by EC50: less than 1 µM for the first, less than 1 µM for the second.

Compared with `C#C[C@]1(O)[C@H](n2cnc3c(OCC)nc(N)nc32)O[C@](F)(CO[P@](=O)(N[C@@H](C)C(=O)OC2CCCCC2)Oc2ccccc2)[C@H]1O` [Compound 34], `C#C[C@]1(F)[C@H](n2cnc3c(OCC)nc(N)nc32)O[C@](F)(COP(=O)(N[C@@H](C)C(=O)OC2CCCCC2)Oc2ccccc2)[C@H]1O` (some centres unmarked) [Compound 40] is higher in EC50: less than 1 µM for the first, 1 to 10 µM for the second. The first is the more potent here.

`CCOc1nc(N)nc2c1ncn2[C@@H]1O[C@](F)(COP(=O)(N[C@@H](C)C(=O)OC(C)C)Oc2cccc3ccccc23)[C@@H](O)[C@@]1(C)F` (some centres unmarked) [Compound 83] and `CCOc1nc(N)nc2c1ncn2[C@@H]1O[C@](F)(COP(=O)(N[C@@H](C)C(=O)OCC(C)C)Oc2cccc3ccccc23)[C@@H](O)[C@@]1(C)F` (some centres unmarked) [Compound 84] cannot be ordered by EC50: less than 1 µM for the first, less than 1 µM for the second.

`C[C@H](NP(=O)(OC[C@@]1(F)O[C@@H](n2ccc(=O)[nH]c2=O)[C@](C)(O)C1O)Oc1ccccc1)C(=O)OCC(C)(C)C` (some centres unmarked) [Compound 5] and `C[C@H](NP(=O)(OC[C@@]1(F)O[C@@H](n2ccc(=O)[nH]c2=O)[C@](C)(F)[C@@H]1O)Oc1ccccc1)C(=O)OC1CCCCC1` (some centres unmarked) [Compound 30] cannot be ordered by EC50: less than 1 µM for the first, less than 1 µM for the second.

Same assay, conditions: Hepatitis C virus; Huh-7 HCV replicon cells, luciferase reporter, 72 h; read-out: EC50

`CC(C)OC(=O)OCOP(=O)(OCOC(=O)OC(C)C)OC[C@@]1(F)O[C@@H](n2cnc3c(=O)[nH]c(N)nc32)[C@](C)(O)[C@@H]1O` [Compound 49] and `CCOc1nc(N)nc2c1ncn2[C@@H]1O[C@](F)(COP(=O)(OCOC(=O)OC(C)C)OCOC(=O)OC(C)C)[C@@H](O)[C@@]1(C)O` [Compound 52] cannot be ordered by EC50: less than 1 µM for the first, less than 1 µM for the second.

First: C#C[C@]1(O)[C@H](n2ccc(=O)[nH]c2=O)O[C@](F)(COP(=O)(OCOC(=O)OC(C)C)OCOC(=O)OC(C)C)[C@H]1O [Compound 51]
Second: CC(C)OC(=O)OCOP(=O)(OCOC(=O)OC(C)C)OC[C@@]1(F)O[C@@H](n2ccc(=O)[nH]c2=O)[C@](C)(O)[C@@H]1O [Compound 14]
The EC50 of the first is higher: 1 to 10 µM for the first, less than 1 µM for the second.

`C[C@]1(F)[C@H](n2cnc3c(=O)[nH]c(N)nc32)O[C@](F)(CO)[C@H]1O` [Compound 29] and `C[C@]1(F)[C@H](n2ccc(N)nc2=O)O[C@](F)(CO)[C@H]1O` [Compound 27] fall in the same range of EC50: 10 to 100 µM for the first, 10 to 100 µM for the second.

`CCOc1nc(N)nc2c1ncn2[C@@H]1O[C@]2(F)CO[P@](=O)(OC(C)C)O[C@H]2[C@@]1(C)O` (single isomer, unassigned) [Compound 36] and `CCOc1nc(N)nc2c1ncn2[C@@H]1O[C@]2(F)CO[P@@](=O)(OC(C)C)O[C@H]2[C@@]1(C)O` [Compound 37] cannot be ordered by EC50: less than 1 µM for the first, less than 1 µM for the second.

`C[C@]1(F)[C@H](n2ccc(N)nc2=O)O[C@](F)(COP(=O)(O)OP(=O)(O)OP(=O)(O)O)[C@H]1O` [Compound 28] and `CC(C)(C)C(=O)OCOP(=O)(OCOC(=O)C(C)(C)C)OC[C@@]1(F)O[C@@H](n2ccc(=O)[nH]c2=O)[C@](C)(O)[C@@H]1O` [Compound 55] cannot be ordered by EC50: less than 1 µM for the first, less than 1 µM for the second.

`CCOc1nc(N)nc2c1ncn2[C@@H]1O[C@](F)(COP(=O)(OCOC(=O)OC(C)C)OCOC(=O)OC(C)C)[C@@H](O)[C@@]1(C)F` [Compound 53] and `CCOc1nc(N)nc2c1ncn2[C@@H]1O[C@]2(F)CO[P@@](=O)(OC(C)C)O[C@H]2[C@@]1(C)F` [Compound 43] cannot be ordered by EC50: less than 1 µM for the first, less than 1 µM for the second.

Same assay, conditions: read-out: EC50

Work on `CCOc1nc(N)nc2c1ncn2[C@@H]1O[C@]2(F)CO[P@](=O)(OC(C)C)O[C@H]2[C@@]1(C)F` [Compound 42] yielded an EC50 of less than 1 µM.

These molecules were tested against NS5B570-Con1 (Delta-21) (Hepatitis C virus genotype 1b, UniProt Q9WMX2) (assay: biochemical). Details: 50 nM NS5B570-Con1, cIRES RNA template, 2 h at 37° C., mean of several independent experiments.
Type: biochemical, HCV (Con-1 strain)

For `C#C[C@]1(F)[C@H](n2cnc3c(=O)[nH]c(N)nc32)O[C@](F)(COP(=O)(O)OP(=O)(O)OP(=O)(O)O)[C@H]1O` [Compound 44], the IC50 was less than 1 µM.

Same assay, conditions: 50 nM NS5B570-Con1, cIRES RNA template, 2 h at 37° C., mean of several independent experiments; read-out: IC50

`C[C@]1(Cl)[C@H](n2ccc(=O)[nH]c2=O)O[C@](F)(COP(=O)(O)OP(=O)(O)OP(=O)(O)O)[C@H]1O` [Compound 46] gave an IC50 of less than 1 µM.

Same assay, conditions: IC50, 50 nM NS5B570-Con1, cIRES RNA template, 2 h at 37° C., mean of several independent experiments

First: C[C@]1(O)[C@H](n2ccc(=O)[nH]c2=O)O[C@](F)(COP(O)(=S)OP(=O)(O)OP(=O)(O)O)[C@H]1O (single isomer, unassigned) [Compound 7b]
Second: O=c1ccn([C@@H]2O[C@](F)(COP(=O)(O)OP(=O)(O)OP(=O)(O)O)[C@@H](O)[C@]2(O)CF)c(=O)[nH]1 [Compound 76]
The IC50 of the first is higher: 1 to 10 µM for the first, less than 1 µM for the second.

`C[C@]1(O)[C@H](n2ccc(=O)[nH]c2=O)O[C@](F)(COP(O)(=S)OP(=O)(O)OP(=O)(O)O)[C@H]1O` (single isomer, unassigned) [Compound 7a] and `C#C[C@]1(O)[C@H](n2cnc3c(=O)[nH]c(N)nc32)O[C@](F)(COP(=O)(O)OP(=O)(O)OP(=O)(O)O)[C@H]1O` [Compound 9] cannot be ordered by IC50: less than 1 µM for the first, less than 1 µM for the second.

`C#C[C@]1(F)[C@H](n2cnc3c(=O)[nH]c(N)nc32)O[C@](F)(COP(=O)(O)OP(=O)(O)OP(=O)(O)O)[C@H]1O` [Compound 69] gave an IC50 of less than 1 µM.

The molecules below were run on mitochondrial protein synthesis (COX I / SDH A) in HepG2 cells (assay: not given). Details: not given.

In the case of `COc1nc(N)nc2c1ncn2[C@@H]1O[C@H](COP(=O)(N[C@@H](C)C(=O)OCC(C)(C)C)Oc2cccc3ccccc23)[C@@H](O)[C@@]1(C)O` (some centres unmarked) [INX-08189/BMS-986094], the “inhibition of mitochondrial protein synthesis (COX I/SDH A ratio)” value (“inhibition … (COX I/SDH A ratio)” below) is reported as “strongly inhibit mitochondrial protein synthesis”.
In the case of `Cc1cn([C@H]2C=C[C@@H](CO)O2)c(=O)[nH]c1=O` [d4T], the “inhibition … (COX I/SDH A ratio)” value is reported as “not to inhibit mitochondrial protein synthesis at concentrations up to 100 μM”.
`Nc1ccn([C@H]2CC[C@@H](CO)O2)c(=O)n1` [ddC] was tested, and the “inhibition … (COX I/SDH A ratio)” value was “strongly inhibit mitochondrial protein synthesis”.

The molecules below were run against human mitochondrial RNA polymerase (Homo sapiens, UniProt O00411) (assay: DdRp assay: incorporation of nucleotides by human mitochondrial RNA polymerase (HMRP)). Details: single turnover, 100 μM NTP, 30° C., 1 minute; product band on gel.
human mitochondrial RNA polymerase, sequence (O00411 42-1230): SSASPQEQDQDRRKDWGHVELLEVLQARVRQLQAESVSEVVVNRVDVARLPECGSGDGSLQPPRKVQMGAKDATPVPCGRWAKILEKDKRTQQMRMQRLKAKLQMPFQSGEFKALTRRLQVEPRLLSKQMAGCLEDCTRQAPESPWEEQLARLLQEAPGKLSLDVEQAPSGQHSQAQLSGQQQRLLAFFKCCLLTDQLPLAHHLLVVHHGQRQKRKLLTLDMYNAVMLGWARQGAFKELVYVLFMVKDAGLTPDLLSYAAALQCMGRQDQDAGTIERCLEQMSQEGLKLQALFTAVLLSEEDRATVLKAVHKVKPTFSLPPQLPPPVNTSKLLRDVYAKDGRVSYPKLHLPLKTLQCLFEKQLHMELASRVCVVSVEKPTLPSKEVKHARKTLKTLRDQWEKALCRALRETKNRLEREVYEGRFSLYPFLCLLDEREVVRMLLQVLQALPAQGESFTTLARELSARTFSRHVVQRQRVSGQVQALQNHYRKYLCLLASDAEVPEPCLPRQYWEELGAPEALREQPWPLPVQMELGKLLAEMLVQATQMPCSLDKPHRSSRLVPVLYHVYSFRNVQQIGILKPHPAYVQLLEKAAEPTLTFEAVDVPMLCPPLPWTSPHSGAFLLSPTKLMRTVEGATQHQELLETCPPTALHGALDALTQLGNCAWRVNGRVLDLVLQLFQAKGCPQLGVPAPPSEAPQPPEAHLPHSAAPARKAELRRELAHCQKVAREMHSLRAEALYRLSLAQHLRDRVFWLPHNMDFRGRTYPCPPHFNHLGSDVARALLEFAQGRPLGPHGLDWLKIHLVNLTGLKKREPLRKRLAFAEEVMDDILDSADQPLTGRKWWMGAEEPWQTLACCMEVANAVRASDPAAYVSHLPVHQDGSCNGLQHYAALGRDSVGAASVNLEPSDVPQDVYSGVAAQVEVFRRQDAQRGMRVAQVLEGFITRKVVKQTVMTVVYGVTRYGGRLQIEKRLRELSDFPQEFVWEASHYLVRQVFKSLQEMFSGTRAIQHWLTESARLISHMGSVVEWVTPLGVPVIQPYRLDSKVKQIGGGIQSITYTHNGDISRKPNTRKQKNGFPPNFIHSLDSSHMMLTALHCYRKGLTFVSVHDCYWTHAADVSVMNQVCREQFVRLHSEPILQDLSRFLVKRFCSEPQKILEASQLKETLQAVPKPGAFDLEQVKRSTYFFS

In the case of `C[C@@]1(F)[C@H](O)[C@@H](COP(=O)(O)OP(=O)(O)OP(=O)(O)O)O[C@H]1n1ccc(=O)[nH]c1=O` [2′-Me-2′-F-UTP], the “incorporation by HMRP, template for UTP analogs (FIG. 10)” value is reported as “not efficient substrates for incorporation by HMRP”.

In the case of `Nc1ncnc2c1ncn2[C@@H]1O[C@H](COP(=O)(O)OP(=O)(O)OP(=O)(O)O)[C@@H](O)[C@H]1O` [ATP], the “incorporation by HMRP, template for GTP analogs (FIG. 11)” value is reported as “poor substrate for incorporation”.

Reference: US10144755B2, “Substituted nucleosides, nucleotides and analogs thereof” (ALIOS BIOPHARMA, INC., priority 2012, dated 2018)
